Reference: patent publication US8476197B2, “Aminopropenoates as fungicides” (priority 2009, dated 2013)
Like-named read-outs stand apart in the source and are kept apart here. Marks after values point to notes of the source that are not given here.

How the values were obtained:
[1] = preparation examples, HPLC method ([a], [b] or [c]) not stated
Myzus persicae = details: spray on Chinese cabbage leaf-disks, 500 g/ha, after 6 days
Protocol: Chinese cabbage (Brassica pekinesis) leaf-disks infected with all instars of the green peach aphid (Myzus persicae), are sprayed with a preparation of the active ingredient at the desired concentration. After 6 days mortality in % is determined. 100% means that all aphids have been killed; 0% means that none of the aphids have been killed.

Boophilus microplus = Boophilus microplus test (injection); assay type: in vivo; details: injection into adult engorged female ticks, 20 μg/animal, after 7 days
Protocol: Boophilus microplus—Test Injection)
• Solvent: dimethyl sulfoxide
Five adult engorged female ticks (Boophilus microplus) are injected with 1 μl compound solution into the abdomen. Ticks are transferred into replica plates and incubated in a climate chamber for a period of time. Egg deposition of fertile eggs is monitored. […] 100% means that all eggs are infertile; 0% means that all eggs are fertile.

Phaedon cochleariae = details: spray on Chinese cabbage leaf-disks, 500 g/ha, after 7 days
Protocol: • Solvent: 78.0 parts by weight of acetone • 1.5 parts by weight of dimethylformamide • Emulsifier: 0.5 parts by weight of alkylaryl polyglycolether
Chinese cabbage (Brassica pekinesis) leaf-disks are sprayed with a preparation of the active ingredient of the desired concentration. Once dry, the leaf disks are infested with mustard beetle larvae (Phaedon cochleariae). After 7 days mortality in % is determined. 100% means that all beetle larvae have been killed and 0% means that none of the beetle larvae have been killed.

## CCOC(=O)/C(C#N)=C(\N[C@H](C)C(=O)NC)c1scc(C)c1Cl [ethyl (2Z)-3-(3-chloro-4-methyl-2-thienyl)-2-cyano-3-{[(2R)-1-(methylamino)-1-oxopropan-2-yl]amino}acrylate]
[1]
  chromatographic logP: 3.61

## CCOC(=O)C(C#N)=C(NC(C)c1nccs1)c1cccnc1SC (racemic) [Compound 62]
Myzus persicae
  activity (mortality): 100%
pH 7.5
  Log P: 2.73

## CCOC(=O)/C(C#N)=C(\NCCc1ncc(C(F)(F)F)cc1Cl)c1cccnc1Cl [ethyl (2Z)-3-(2-chloropyridin-3-yl)-3-({2-[3-chloro-5-(trifluoromethyl)pyridin-2-yl]ethyl}amino)-2-cyanoacrylate]
[1]
  chromatographic logP: 3.57

## CCOC(=O)C(C#N)=C(NC1CCCNC1=O)c1cccnc1Cl (racemic) [Compound 239]
Boophilus microplus
  activity (mortality; 100% means all eggs infertile): 100%
pH 2.3
  Log P: 1.67
pH 7.5
  Log P: 1.6

## CCOC(=O)C(C#N)=C(NC(C)c1nccs1)c1ncc(C(F)(F)F)cc1Cl (racemic) [Compound 40]
Phaedon cochleariae
  activity (mortality): 83%
pH 2.7
  Log P: 3.37^[a]

## CC(N/C(=C(/C#N)C(=O)O)c1sccc1Br)c1nccs1 (stereo not shown) [(2Z)-3-(3-bromo-2-thienyl)-2-cyano-3-{[1-(1,3-thiazol-2-yl)ethyl]amino}acrylic acid]
[1]
  chromatographic logP: 1.23

## CCOC(=O)C(C#N)=C(Cl)c1scc(C)c1Cl [ethyl 3-chloro-3-(3-chloro-4-methyl-2-thienyl)-2-cyanoacrylate]
[1]
  chromatographic logP: 3.65
  LogP: 3.70

## CCOC(=O)C(C#N)=C(NC(C)C(C)C)c1cccnc1-c1ccc(Cl)c(Cl)c1 (stereo not shown) [Compound 1475]
Phaedon cochleariae
  activity (mortality): 100%
pH 2.3
  Log P: 4.56^[c]; 4.56^[b]
pH 7.5
  Log P: 4.56^[c]; 4.56^[b]

## CNC(=O)C(C#N)=C(NC(C)C1CC1)c1cccnc1Cl (mixture of isomers) [Compound 1244]
Myzus persicae
  activity (mortality): 100%

## N#CC=C(Cl)c1cccnc1Cl [3-chloro-3-(2-chloropyridin-3-yl)acrylonitrile]
[1]
  chromatographic logP: 1.94
  LogP: 2.03

## CCOC(=O)/C(C#N)=C(\NCC(c1ccccc1)C(C)C)c1cccnc1Cl (stereo not shown) [ethyl (2Z)-3-(2-chloropyridin-3-yl)-2-cyano-3-[(3-methyl-2-phenylbutyl)amino]acrylate]
[1]
  chromatographic logP: 4.21

## CCOC(=O)C(C#N)=C(NC(C)C(=O)NC)c1ncc(C(F)(F)F)cc1Cl (stereo not shown) [Compound 600]
Myzus persicae
  activity (mortality): 100%
pH 2.7
  Log P: 2.41^[a]

## CCOC(=O)/C(C#N)=C(\NC(C)c1ccc(Cl)nc1)c1cccnc1Cl (stereo not shown) [ethyl (2Z)-3-(2-chloropyridin-3-yl)-3-{[1-(6-chloropyridin-3-yl)ethyl]amino}-2-cyanoacrylate]
[1]
  chromatographic logP: 2.8

## CC(N/C(=C(/C#N)C(=O)NC1CC1)c1cn(C)nc1C(F)F)c1nccs1 (stereo not shown) [(2Z)-2-cyano-N-cyclopropyl-3-[3-(difluoromethyl)-1-methyl-1H-pyrazol-4-yl]-3-{[1-(1,3-thiazol-2-yl)ethyl]amino}acrylamide]
[1]
  chromatographic logP: 2.04

## CCNC(=S)/C(C#N)=C(\NC1CC1CC)c1cccnc1Cl (stereo not shown) [(2Z)-3-(2-chloropyridin-3-yl)-2-cyano-N-ethyl-3-[(2-ethylcyclopropyl)amino]-prop-2-enethioamide]
[1]
  chromatographic logP: 3.87

## CC(C)NC(=O)C(C#N)=C(NC(C)C(C)C)c1cccnc1Cl (stereo not shown) [Compound 957]
Phaedon cochleariae
  activity (mortality): 100%
pH 2.3
  Log P: 3.37
pH 7.5
  Log P: 3.39

## CC(C)NC(=O)/C(C#N)=C(\NC(C)c1nccs1)c1sccc1Br (stereo not shown)
[1]
  chromatographic logP: 3.11

## CCOC(=O)C(C#N)=C(NC(C)C(C)C)c1cccnc1-c1cncnc1 (stereo not shown) [Compound 1591]
Phaedon cochleariae
  activity (mortality): 100%
pH 7.5
  Log P: 2.42

## CSCC(C)NC(=C(C#N)C(=O)OC(C)C)c1cccnc1Cl (stereo not shown) [Compound 597]
Myzus persicae
  activity (mortality): 90%
pH 7.5
  Log P: 3.03

## C#CC(C)(C)NC(=C(C#N)C(=O)OC)c1cccnc1Cl [Compound 1028]
Phaedon cochleariae
  activity (mortality): 83%
pH 2.7
  Log P: 2.23^[a]

## CCN/C(=C(/C#N)C(=O)OCC)c1cccnc1-c1ccc(Cl)cc1 [ethyl (2Z)-3-[2-(4-chlorophenyl)pyridin-3-yl]-2-cyano-3-(ethylamino)acrylate]
[1]
  chromatographic logP: 2.96

## CCC1CC1N/C(=C/C#N)c1cccnc1Cl (stereo not shown) [3-(2-chloropyridin-3-yl)-3-[(2-ethylcyclopropyl)amino]acrylonitrile]
[1]
  chromatographic logP: 2.53

## CCOC(=O)C(C#N)=C(NC(C(=O)OC)C(C)C)c1cc(Cl)sc1Cl (stereo not shown) [Compound 712]
pH 2.7
  Log P: 4.14^[a]

## CCOC(=O)C(C#N)=C(NC(C)C1CCCO1)c1sccc1Br (mixture of isomers) [Compound 186]
pH 2.7
  Log P: 3.35^[a]

## CCOC(=O)C(C#N)=C(NC(C)c1ccccc1Cl)c1cn(C)nc1C(F)F (racemic) [Compound 553]
pH 2.7
  Log P: 3.46^[a]

## CCOC(=O)C(C#N)=C(NC(C(=O)OC)C(C)C)c1cn(C)nc1C(F)F (racemic) [Compound 674]
pH 2.7
  Log P: 2.84^[a]

## CCOC(=O)C(C#N)=C(NCc1nccs1)c1c(C)nn(C)c1F [Compound 80]
pH 2.7
  Log P: 2.01^[a]

## CCOC(=O)C(C#N)=C(NC(C)C1CC1)c1ccnc(Cl)c1Cl (racemic) [Compound 902]
pH 2.7
  Log P: 3.61^[a]

## C=CC(COCc1ccccc1)NC(=C(C#N)C(=O)OCC)c1cn(C)nc1C(F)F (stereo not shown) [Compound 691]
pH 2.7
  Log P: 3.51^[a]

## CCOC(=O)C(C#N)=C(NC1COC1)c1cccnc1Cl [Compound 1356]
pH 2.7
  Log P: 1.84^[a]

## CCOC(=O)C(C#N)=C(NC1CCS(=O)(=O)C1)c1cn(C)nc1C(F)F (stereo not shown) [Compound 1420]
pH 2.7
  Log P: 1.79^[a]

## CCOC(=O)C(C#N)=C(NC(C)c1c(Cl)cccc1Cl)c1cnn(C)c1Cl (stereo not shown) [Compound 1559]
pH 2.7
  Log P: 3.78^[a]

## CCOC(=O)C(C#N)=C(Nc1ccc2ncsc2c1)c1cn(C)nc1C(F)F [Compound 473]
pH 2.7
  Log P: 2.44^[a]

## CCCCCC(C)NC(=C(C#N)C(=O)OCC)c1cn(C)nc1C(F)F (racemic) [Compound 855]
pH 2.7
  Log P: 3.94^[a]

## CCOC(=O)C(C#N)=C(NC(c1ccc(Cl)cc1)C(F)(F)F)c1cccnc1Cl (racemic) [Compound 1261]
pH 2.7
  Log P: 4.25^[a]

## CCOC(=O)C(C#N)=C(NC(C)CN)c1cn(C)nc1C(F)(F)F (stereo not shown) [Compound 632]
pH 2.7
  Log P: 1.11^[a]

## CCOC(=O)C(C#N)=C(NC(C)c1ccccn1)c1ccsc1I (racemic) [Compound 163]
pH 2.7
  Log P: 3.03^[a]

## CCOC(=O)C(C#N)=C(NC(C)CSC)c1cccnc1C (stereo not shown) [Compound 648]
pH 2.3
  Log P: 2.2
pH 7.5
  Log P: 2.44

## CCOC(=O)C(C#N)=C(NCc1nccs1)c1sccc1Br [Compound 88]
pH 2.7
  Log P: 2.67^[a]

## CC#CC(C)(C)NC(=C(C#N)C(=O)OC)c1sc(C)nc1C(F)(F)F [Compound 1042]
pH 2.7
  Log P: 3.35^[a]

## COCC#CC(C)(C)NC(=C(C#N)C(=O)OC)c1sc(C)nc1C(F)(F)F [Compound 1100]
pH 2.7
  Log P: 3.06^[a]

## CCOC(=O)C(C#N)=C(NC(C)CC)c1sc(C)nc1C(F)(F)F (stereo not shown) [Compound 835]
pH 2.7
  Log P: 3.59^[a]

## CCOC(=O)C(C#N)=C(NC(C)COC)c1sccc1C(F)(F)F (racemic) [Compound 655]
pH 2.7
  Log P: 3.31^[a]

## CCOC(=O)C(C#N)=C(NC1CC(C)C1)c1cccnc1Cl (stereo not shown) [Compound 1073]
pH 2.7
  Log P: 3.3^[a]

## C#CC(C)NC(=C(C#N)C(=O)OCC)c1cccnc1Cl (stereo not shown) [Compound 1181]
pH 2.7
  Log P: 2.66^[a]

## CCOC(=O)C(C#N)=C(NC(C)(C)C#Cc1ccc(C#N)cc1)c1cccnc1Cl [Compound 1272]
pH 2.7
  Log P: 3.67^[a]

## CCOC(=O)C(C#N)=C(NC(C)c1cccs1)c1cn(C)nc1C(F)F (stereo not shown) [Compound 213]
pH 2.7
  Log P: 3.02^[a]

## COC(=O)C(C#N)=C(NC(C)c1ccccc1C)c1cccnc1Cl (stereo not shown) [Compound 373]
pH 2.7
  Log P: 3.15^[a]

## CCOC(=O)C(C#N)=C(NC(C)(C)CSC)c1sccc1C(F)(F)F [Compound 700]
pH 2.7
  Log P: 3.8^[a]

## CCOC(=O)C(C#N)=C(NC(C)Cc1ccncc1)c1cccnc1Cl (stereo not shown) [Compound 320]
pH 2.7
  Log P: 1.64^[a]

## COC(=O)C(C#N)=C(Nc1ccccc1OC(C)C)c1sc(C)nc1C(F)(F)F [Compound 514]
pH 2.7
  Log P: 3.96^[a]

## CCOC(=O)C(C#N)=C(NC(C)CC)c1cccnc1Cl (stereo not shown) [Compound 1174]
pH 2.7
  Log P: 3^[a]
